In patent US7238507B2, “Aspergillus ochraceus 11 alpha hydroxylase and oxidoreductase” (priority 2000, dated 2007):

Tests used:
[1] = system: Aspergillus ochraceus 11 alpha hydroxylase; test: HPLC assay of conversion of androstenedione to 11α-hydroxyandrostenedione by subcellular fractions of baculovirus-infected Sf9 cells co-expressing 11 alpha hydroxylase and human oxidoreductase; type: biochemical; details: 11 alpha hydroxylase co-expressed in Sf-9 insect cells with human oxidoreductase
Description: Microsomal and mitochondrial subcellular fractions were prepared from insect cells co-infected with recombinant baculoviruses expressing recombinant Aspergillus ochraceus 11 alpha hydroxylase and human oxidoreductase cloned from HepG2 cell RNA. The subcellular fractions were incubated with 250 μM androstenedione (AD) in the presence of an NADPH-generating system for 120 minutes, and the resulting products were separated by HPLC and monitored by ultraviolet detection at 247 nm. Hydroxlase activity was found in the microsomal fraction, as expected, but also appeared in the mitochondrial fraction. […] Panel A illustrates a reaction carried out using enzyme prepared from a mitochondrial fraction. The peak in panel A that elutes after AD appears to be testosterone. When a microsomal fraction was used, almost as much AD was converted to 11 alpha hydroxy AD, but relatively more testosterone was also produced. Panel B illustrates the same reaction carried out for 120 minutes without a source of enzyme. Panel C illustrates an HPLC tracing with 11α-hydroxyandrostenedione standard added to incubation buffer.
Sf9 cells were co-infected with virus particles that contained the steroid 11 alpha hydroxylase cDNA and a separate virus containing a human NADPH P450-oxidoreductase. Both viruses were added at a multiplicity of infection (MOI) ratio of 0.1:0.01 (11 aOH to oxr). […]

[2] = system: Aspergillus ochraceus spores; test: 11 α-hydroxylation of canrenone by A. ochraceus spores, media extract analysed by HPLC; type: cell-based; details: spores incubated approximately 26 hours at 30° C. with 0.1 g canrenone in 400 ml; data not shown
Description: Aspergillus ochraceus ATCC 18500 stock culture (50 ul) was grown for 3-4 days on plates containing sporulation medium: 50 g/L molasses, 5 g/L cornsteep liquid, 5 g/L KH2PO4, 25 g/L NaCl, 25 g/L glucose, 20 g/L agar, and 0.4 g/L progesterone, pH 5.8. Progesterone was included in the media to induce the steroid 11 α-hydroxylase. Spores were scraped from the plates into 5 to 7 ml saline, washed in saline, collected by centrifugation, and suspended in saline containing 15% glycerol. The spores were frozen on dry ice and stored at −80° C. Approximately 0.8 g spores were incubated at 30° C. in a 1 liter flask containing 400 ml 1% glucose, 50 mM KH2PO4 and 0.1 g canrenone, pH 7.0. This treatment prior to spore disruption has three benefits: (1) to induce the steroid 11 α-hydroxylase by incubation with canrenone; (2) to determine whether the spores were catalyzing the 11 α-hydroxylation of canrenone; (3) and to soften the spore wall. After approximately 26 hours of incubating with shaking at 30° C. to provide better aeration, the spores were collected by centrifugation. […]
Approximately 160 ml of media from the spore induction was extracted three times with 70 ml ethyl acetate to collect the steroid substrate and products. […] The residue was dissolved in 8 ml methanol so that the final concentration of canrenone was approximately 15 mM (assuming quantitative recovery). […]

SMILES: C[C@]12CCC(=O)C=C1CC[C@@H]1[C@@H]2CC[C@]2(C)C(=O)CC[C@@H]12 [AD, Androst-4-ene-3,17-dione(8CI,9CI)]
- conversion of the steroid substrate to 11 alpha-hydroxy-AD as determined by HPLC analysis [1]: successfully catalyzed the conversion

SMILES: C[C@]12CCC(=O)C=C1C=C[C@@H]1C2CC[C@@]2(C)C1CC[C@@]21CCC(=O)O1 (stereo partly drawn) [canrenone, Pregna-4,6-diene-21-carboxylic acid,17-hydroxy-3-oxo-,γ-lactone, (17α)-(9CI)]
- 11 α-hydroxylation of canrenone, HPLC of media extract monitored at 254 nm [2]: exhibited a component with the same retention time as the 11 α-hydroxy canrenone standard
